Assay results from patent US10675275B2, “Prophylactic and/or therapeutic agent for fibromyalgia” (ONO PHARMACEUTICAL CO., LTD., priority 2015, dated 2020).
Where a name gives a salt, the structure may show the parent alone.

System: rat somatic hyperalgesia model
Assay: Efficacy in a rat somatic hyperalgesia model (acid saline, Randall-Selitto pain threshold)
Type: in vivo
Conditions: SD male rats, right hind paw (non-challenged side), oral
Method: SD male rats (Charles River Laboratories Japan, Inc., 5 weeks old upon usage) were used. Under isoflurane anaesthesia, rats were intramuscularly administered with 100 μL of acidic saline of pH 4.0 in the left gastrocnemius. After 5 days of administration, rats again received 100 μL of acid saline in the left gastrocnemius. In the normal group, rats were intramuscularly administered with 100 μL of saline twice in total with 5 days apart in the left gastrocnemius (see Muscle Nerve, vol. 24, pp. 37-46, 2001).
The pain threshold was measured on a Randall-Selitto pressure analgesy-meter (Ugo Basile). Briefly, rats were securely fixed and uniformly and continuously increasing pressure was applied to the hind paws. […] For each of the left and right hind paws, tests were carried out three times at each evaluation point and the values were averaged to obtain the pain threshold.
For the normal group, rats were arbitrarily selected from those showing the pain threshold on the day before the first administration of acid saline of 140 g or more for both left and right hind paws. After being divided into groups, administration of the test compound (the present compound (the compound described in Example 38 of PTL 1), comparative compound A (the compound described in Example 38(5) of PTL 1), comparative compound B (the compound described in Example 41(2) of PTL 1), comparative compound C (1-(2-chlorophenyl)-N-methyl-N-(1-methylpropyl)isoquinoline-3-carboxamide (PK11195), CAS registry No.: 85532-75-8), a control substance (duloxetine hydrochloride, pregabalin) or a vehicle (0.5 w/v % methylcellulose 400 cP solution)) was started on the same day. On day 1 and day 7 of administration of each drug solution, the pain threshold on left and right hind paws was measured in a blind manner 2 hours after the first administration. Duloxetine hydrochloride was orally administered once a day and other agents were orally administered twice a day.

COc1cc(Cl)ccc1[C@H]1c2[nH]c3cccc(F)c3c2C2(CC2)CN1C(C)=O [the present compound, (1S)-2-acetyl-1-(4-chloro-2-methoxyphenyl)-5-fluoro-1,2,3,9-tetrahydrospiro[β-carboline-4,1′-cyclopropane]]
pain threshold (suppression of the decrease caused by acid saline) (day 7 of administration, before and 2 hours after administration, 0.1, 1 or 10 mg/kg, twice a day): significant suppression
pain threshold (suppression of the decrease caused by acid saline) (day 7 of administration, before and 2 hours after administration, 0.1, 1 or 10 mg/kg, twice a day, listed as The present compound): suppressed this decrease of the pain threshold

CC(C)C[C@H](CN)CC(=O)O [pregabalin]
pain threshold (suppression of the decrease caused by acid saline) (day 7, before and 2 hours after administration, 20 mg/kg, twice a day): suppressed this decrease of the pain threshold

CNCC[C@H](Oc1cccc2ccccc12)c1cccs1 [duloxetine hydrochloride]
pain threshold (suppression of the decrease caused by acid saline) (day 7, before and 2 hours after administration, 30 mg/kg, once a day): suppressed this decrease of the pain threshold

CCC(C)N(C)C(=O)c1cc2ccccc2c(-c2ccccc2Cl)n1 (centres unmarked) [comparative compound C, 1-(2-chlorophenyl)-N-methyl-N-(1-methylpropyl)isoquinoline-3-carboxamide]
pain threshold (efficacy for the pain threshold decreased in the control group) (day 7, before and 2 hours after administration, 1 mg/kg, twice a day): did not show the efficacy
